According to PubChem BioAssay AID1549 (Sanford-Burnham Center for Chemical Genomics, 2009):
Calls of active or inactive are those of the source. The rule behind the calls is not given here.

Target: Influenza A virus M2 proton channel (A/TW/4845/1999 H1N1)
Experiment: NMR binding screen, influenza A virus M2 proton channel, Kd (AID 1549)
Details: M2 protein

Structure (SMILES) | Kd
Cc1ccc(C(C)C)cc2c(C)ccc1-2 | > 4 mM (inactive)
O=C(Oc1ccc(-c2nnco2)cc1)N1CCOCC1 | > 4 mM (inactive)
NC(=O)C(=O)Nc1nc(-c2ccccc2)cs1 | > 4 mM (inactive)
COc1cc2cc3c4cc(OC)c(OC)cc4cc[n+]3c(C)c2cc1OC | > 4 mM (inactive)
NCCC(=O)N[C@@H](Cc1cnc[nH]1)C(=O)O | > 4 mM (inactive)
O=C(O)c1cccc2c1OCCO2 | > 4 mM (inactive)
Nc1nncn1C(=O)c1c(Cl)cccc1Cl | > 4 mM (inactive)
CC(=O)Oc1cc2c(c(C)c1OC(C)=O)CC=C1[C@@]2(C)CC[C@@]2(C)C3C[C@](C)(C(=O)O)CC[C@]3(C)CC[C@]12C (some centres undefined) | > 4 mM (inactive)
CC(=O)c1c(C)nc(-c2cccs2)n1O | > 4 mM (inactive)
CC(CC(O)C1OC1(C)C)[C@@H]1CCC2(C)C3=CCC4C(C)(C)C(=O)CCC4(C)C3CC[C@@]12C (some centres undefined) | > 4 mM (inactive)
Cc1ccc(N2C(=O)CCC2=O)cc1 | > 4 mM (inactive)
COc1ccc(-c2coc3cc(O)ccc3c2=O)cc1 | > 4 mM (inactive)
Oc1ccc(-n2cncn2)cc1 | > 4 mM (inactive)
O=c1[nH]c2sc3c(c2c2ncnn12)CCCC3 | > 4 mM (inactive)
Oc1ccc([C@H]2Oc3cc(O)cc(O)c3C[C@H]2O)cc1 | > 4 mM (inactive)
Cc1nnsc1C(=O)Nc1ccccn1 | > 4 mM (inactive)
COc1c2ccoc2nc2c(OC)c(OCC(O)C(C)(C)O)ccc12 (centres undefined) | > 4 mM (inactive)
O=C(O)c1ccc2c(c1)OCCO2 | > 4 mM (inactive)
O=C(Cc1ccc(F)cc1)Nc1ncccn1 | > 4 mM (inactive)
Cc1cccc(N2C(=O)CC(=O)NC2=O)c1 | > 4 mM (inactive)
CNC(=O)Nc1ccc(C(=O)NC)cc1 | > 4 mM (inactive)
CN1CCN(c2cc(=O)n(C)c(=O)[nH]2)CC1 | > 4 mM (inactive)
N#CCN1C(=O)c2ccccc2S1(=O)=O | > 4 mM (inactive)

Structure (SMILES) | Kd
NC(=O)CCS(=O)(=O)CCN1CCOCC1 | > 4 mM (inactive)
COC(=O)CSc1ncnc2c(C)csc12 | > 4 mM (inactive)
NC(=O)CSCc1ccc(Br)cc1 | > 4 mM (inactive)
Cc1nc2cc(Cl)ccc2n1CCO | > 4 mM (inactive)
CCOC(=O)c1ccc(F)c(F)c1 | > 4 mM (inactive)
O=C1C2C3C=CC(C3)C2C(=O)N1c1cccnc1 (centres undefined) | > 4 mM (inactive)
Cc1cc2ncc(C(=O)Nc3ccccc3)c(C)n2n1 | > 4 mM (inactive)
CN1C(=O)c2ccc(C(=O)NC3CCCCC3)cc2C1=O | > 4 mM (inactive)
NC(N)=Nc1nc2ccccc2o1 | > 4 mM (inactive)
OC1CNCc2cc3c(cc21)OCCO3 (centres undefined) | > 4 mM (inactive)
O=C(Oc1ccc(-c2nnco2)cc1)N1CCCCC1 | > 4 mM (inactive)
COC(=O)c1cccnc1Oc1ccccc1 | > 4 mM (inactive)
COC(=O)C1=CO[C@@H](O[C@@H]2O[C@H](CO)[C@@H](O)[C@H](O)[C@H]2O)[C@@H]2[C@@H](C)[C@@H](O)C[C@H]12 | > 4 mM (inactive)
COC1=CC23CCCN2CCc2cc4c(cc2C3C1O)OCO4 (centres undefined) | > 4 mM (inactive)
CC(=O)Oc1ccc(/C=C/c2cc(OC(C)=O)cc(OC(C)=O)c2)cc1 | > 4 mM (inactive)
NCc1ccc2c(c1)OCCCO2 | > 4 mM (inactive)
Cc1ccc(C(=O)Nc2c[nH]c(=O)[nH]c2=O)cc1 | > 4 mM (inactive)
COCCn1c(N)nc2c1c(=O)[nH]c(=O)n2C | > 4 mM (inactive)
COc1ccc(-c2cc(=O)c3c(O)c(OC)c(O[C@H]4O[C@H](CO[C@@H]5O[C@@H](C)[C@H](O)[C@@H](O)[C@H]5O)[C@@H](O)[C@H](O)[C@H]4O)cc3o2)cc1 | > 4 mM (inactive)
Cc1ccc(-c2c(C)n([O-])c3c([n+]2=O)CCCC3)o1 | > 4 mM (inactive)
Cc1cc(C)n2nc(-c3cccnc3)nc2n1 | > 4 mM (inactive)
Cc1cccc(C)c1NC(=O)CN1CCOCC1 | > 4 mM (inactive)
O=C(O)/C=C/c1ccc(O)c(O)c1 | > 4 mM (inactive)

Structure (SMILES) | Kd
Cc1noc(C)c1C(=O)Nc1ccccn1 | > 4 mM (inactive)
COC(=O)c1sccc1S(=O)(=O)N1CCCC1 | > 4 mM (inactive)
OCc1ccc2ncccc2c1 | > 4 mM (inactive)
Cc1nnc(SCc2ccc(F)cc2)s1 | > 4 mM (inactive)
Cn1cccc1C=C1C(=O)NC(=S)NC1=O | > 4 mM (inactive)
NC1CSCC1O (centres undefined) | > 4 mM (inactive)
Cc1cc(C(=O)Nc2ccc3c(c2)OCO3)cs1 | > 4 mM (inactive)
CCN(CC)C(=O)c1n[nH]c(=O)c2ccccc12 | > 4 mM (inactive)
Cn1c(SCC(N)=O)nnc1-c1c[nH]c2ccccc12 | > 4 mM (inactive)
O=P(c1ccccc1)(c1ccccc1)C1CCOCC1 | > 4 mM (inactive)
CC(=O)OC1CCC2(C)C3CC(=O)C4(C)C(CC5OC6(CCC(C)CO6)[C@@H](C)C54)C3CC[C@H]2C1 (some centres undefined) | > 4 mM (inactive)
C/C(N)=C/C(=O)N1CCCCC1 | > 4 mM (inactive)
COc1cc(OC)c2c(=O)c(O)c(-c3ccc(OC)c(OC)c3)oc2c1 | > 4 mM (inactive)
O=C(Nc1ccccn1)c1cc(-n2cnnc2)ccc1Cl | > 4 mM (inactive)
CC(C)(C)C(=O)Nc1ncc(C(F)(F)F)cc1Cl | > 4 mM (inactive)
CC(=O)OC1CCC23CC1(C)CCC2C(C)(C)CC3OC(C)=O (centres undefined) | > 4 mM (inactive)
O=C(Nc1nc2ccccc2s1)c1ccc(=O)[nH]n1 | > 4 mM (inactive)
CC(=O)O[C@H]1C[C@@H](OC(C)=O)C(C)(C)C2C[C@@H](OC(C)=O)[C@]3(C)C(CC[C@@]4(C)[C@H](c5ccoc5)OC(=O)[C@H]5O[C@]543)[C@]21C (some centres undefined) | > 4 mM (inactive)
O=C(O)Cc1n[nH]c(=O)c2ccccc12 | > 4 mM (inactive)
C=C(C)[C@H]1Cc2c(ccc3c2O[C@@H]2COc4cc(OC)c(OC)cc4[C@@H]2C3=O)O1 | > 4 mM (inactive)
COC(=O)Nc1nnc(-c2ccncc2)s1 | > 4 mM (inactive)
CCN1C(=O)N(CO)C2C1N(C)C(=O)N2C (centres undefined) | > 4 mM (inactive)
COc1ccccc1NC(=O)c1snnc1C | > 4 mM (inactive)

Structure (SMILES) | Kd
O=C(O)CSCc1c(F)cccc1Cl | > 4 mM (inactive)
CN1CCC(N2CCOCC2)CC1 | > 4 mM (inactive)
C[C@@H]1CC[C@@]23CCC4(C)[C@@](C=CC5[C@@]6(C)CC[C@H](O)C(C)(C)C6CC[C@]54C)(OC2=O)C3[C@H]1C (some centres undefined) | > 4 mM (inactive)
CC(C)=CCc1c(O)cc2occ(-c3ccc4c(c3)OCO4)c(=O)c2c1O | > 4 mM (inactive)
CN(C)c1ccc2c(=O)[nH][nH]c(=O)c2c1 | > 4 mM (inactive)
CCOC(=O)c1c(C)[nH]c2ccc(O)cc12 | > 4 mM (inactive)
Nc1nc(CSc2ncn(-c3ccccc3)n2)cs1 | > 4 mM (inactive)
O=c1ccc2nc3ccccc3c(=O)n2[nH]1 | > 4 mM (inactive)
Cc1nc(NCc2ccco2)nc2c1C(=O)CC(C)C2 (centres undefined) | > 4 mM (inactive)
CC(C1OC(C)(C)C(O)C1O)[C@@H]1CC[C@]2(C)C3=CCC4C(C)(C)C(=O)CC[C@]4(C)C3CC[C@@]12C (some centres undefined) | > 4 mM (inactive)
COc1cc(/C=C2\SC(=S)NC2=O)ccc1O | > 4 mM (inactive)
Cc1nnc(SCC(=O)N2CCCCC2)s1 | > 4 mM (inactive)
COc1nc(C#N)c(N2CCOCC2)o1 | > 4 mM (inactive)
CC12CCCC(O)(C1)C1CC(C)(C)C1CC2 (centres undefined) | > 4 mM (inactive)
Cc1noc(C)c1C(=O)Nc1ccccc1-c1ccccc1 | > 4 mM (inactive)
COc1ccc2c(c1)[n+](=O)c(C(C)=O)c(C)n2[O-] | > 4 mM (inactive)
O=C(O[C@@H]1Cc2c(O)cc(O)cc2O[C@@H]1c1cc(O)c(O)c(O)c1)c1cc(O)c(O)c(O)c1 | > 4 mM (inactive)
NC(N)=NCCCCN=C(N)N | > 4 mM (inactive)
Cc1ccn(S(=O)(=O)c2ccc(F)cc2)n1 | > 4 mM (inactive)
c1ccc(-c2n[nH]c(-c3ccccn3)n2)nc1 | > 4 mM (inactive)
O=C(NN1CCOCC1)c1cccs1 | > 4 mM (inactive)
CCOC(=O)c1cnn2ccccc12 | > 4 mM (inactive)
O=C(O)CN(CCCc1ccccc1)CC(=O)O | > 4 mM (inactive)

Structure (SMILES) | Kd
Clc1ccc(-c2noc(CN3CCCC3)n2)cc1 | > 4 mM (inactive)
C[C@]12CCC(=O)C=C1CCC1C2C(=O)C[C@@]2(C)C1CC[C@]2(O)C(=O)CO (some centres undefined) | > 4 mM (inactive)
COc1ccc(/C=C2/NC(=S)NC2=O)cc1 | > 4 mM (inactive)
CN(C)S(=O)(=O)N1CCc2ccccc21 | > 4 mM (inactive)
Cc1ccccc1CSc1nncn1N | > 4 mM (inactive)
Oc1cccc2[nH]ccc12 | > 4 mM (inactive)
Cc1sc2nc(SC3CCOC3=O)[nH]c(=O)c2c1C (centres undefined) | > 4 mM (inactive)
Cc1nc(N)sc1C(=O)Nc1nccs1 | > 4 mM (inactive)
O=C(/C(=N\O)n1cncn1)c1ccccc1Cl | > 4 mM (inactive)
C=C[C@](C)(O)CCC=C(C)C | > 4 mM (inactive)
NCc1ccc(-c2cccs2)cc1 | > 4 mM (inactive)
NC(=O)C1CCN(C2CC(=O)NC2=O)CC1 (centres undefined) | > 4 mM (inactive)
CCCC(=O)N1CCSCC1 | > 4 mM (inactive)
Cc1c(C)n2c(SCC(N)=O)nnc2[nH]c1=O | > 4 mM (inactive)
Nc1cccc(CC(=S)N2CCOCC2)c1 | > 4 mM (inactive)
CCN=Cc1c(O)n(-c2ccccc2C)c(=O)[nH]c1=O | > 4 mM (inactive)
CC(C)NS(=O)(=O)c1ccc(N)cc1 | > 4 mM (inactive)
COc1cc(C(C)=O)ccc1OC(=O)N1CCOCC1 | > 4 mM (inactive)
O=C1CCC([N+](=O)[O-])C(c2ccccc2F)N1 (centres undefined) | > 4 mM (inactive)
C/C=C(\C)C(=O)O[C@H]1C[C@@H](OC(C)=O)[C@@]2(C(=O)OC)CO[C@@H]3C2[C@]12CO[C@](O)(C(=O)OC)[C@H]2[C@](C)(C12O[C@@]1(C)[C@H]1C[C@@H]2OC2OC=C[C@@]21O)[C@@H]3O (some centres undefined) | > 4 mM (inactive)
CC(C)(C)c1cc(CN)c(C(=O)O)o1 | > 4 mM (inactive)
Cc1nn(-c2ccccc2)nc1C(N)=O | > 4 mM (inactive)
